biological target: T1, Dihydrofolate reductase (Mycobacterium avium, UniProt O30463); assay: Antimycobacterial activity against Mycobacterium avium complex dihydrofolate reductase (MAC DHFR)
T1 sequence (O30463 whole entry): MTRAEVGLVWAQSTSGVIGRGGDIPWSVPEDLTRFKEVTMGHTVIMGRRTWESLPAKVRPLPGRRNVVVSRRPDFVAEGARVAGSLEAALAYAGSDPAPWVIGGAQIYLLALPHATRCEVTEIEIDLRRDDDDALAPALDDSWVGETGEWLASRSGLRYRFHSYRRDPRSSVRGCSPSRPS

Row | SMILES | IC50 [nM]
1 | Cc1c(CN(C)c2cccc3c2CCCC3)cnc2nc(N)nc(N)c12 | 1.9
2 | COc1ccc(SCc2cnc3nc(N)nc(N)c3c2C)cc1OC | 1.5
3 | Cc1cccc(SCc2cnc3nc(N)nc(N)c3c2C)c1 | 16
4 | COc1cc(NCc2cnc3nc(N)nc(N)c3c2)cc(OC)c1OC | 240
5 | Cc1ccc(C)c(NCc2cnc3nc(N)nc(N)c3c2C)c1 | 0.92
6 | Cc1c(CNc2ccc(Cl)cc2)cnc2nc(N)nc(N)c12 | 0.84
7 | Nc1nc(N)c2cc(CNc3ccc(Cl)cc3)cnc2n1 | 73
8 | COc1cc(NCc2cnc3nc(N)nc(N)c3c2C)cc(OC)c1OC | 0.82
9 | COc1cc(NCc2cnc3nc(N)nc(N)c3c2C)cc(OC)c1 | 20
10 | Cc1c(CSc2cccc3ccccc23)cnc2nc(N)nc(N)c12 | 4.6
11 | COc1ccc(C)c(NCc2cnc3nc(N)nc(N)c3c2C)c1 | 0.4
12 | CCOc1ccc(OCC)c(N(C)Cc2cnc3nc(N)nc(N)c3c2C)c1 | 1.4
13 | Cc1c(CNc2cccc3ccccc23)cnc2nc(N)nc(N)c12 | 0.81
14 | COc1cc(NCc2cnc3nc(N)nc(N)c3c2C)cc(C(F)(F)F)c1 | 0.93
15 | Cc1c(CSc2cccc(Cl)c2)cnc2nc(N)nc(N)c12 | 3.9
16 | COc1cccc(SCc2cnc3nc(N)nc(N)c3c2C)c1 | 2.7
17 | COc1ccc(C)cc1NCc1cnc2nc(N)nc(N)c2c1C | 0.86
18 | COc1ccc(C(F)(F)F)cc1NCc1cnc2nc(N)nc(N)c2c1C | 0.66

Row | SMILES | IC50 [nM]
19 | Cc1c(CNc2cccc3c2CCCC3)cnc2nc(N)nc(N)c12 | 0.93
20 | COc1ccc(NCc2cnc3nc(N)nc(N)c3c2C)cc1OC | 0.7
21 | COc1ccc(OC)c(CCc2cnc3nc(N)nc(N)c3c2C)c1 | 47
22 | COc1cc(Cl)c(C)cc1NCc1cnc2nc(N)nc(N)c2c1C | 0.94
23 | Cc1c(CNc2ccc(OC(F)F)cc2)cnc2nc(N)nc(N)c12 | 1.1
24 | Cc1c(CNc2cccc3cnccc23)cnc2nc(N)nc(N)c12 | 0.87
25 | Cc1ccc(F)cc1NCc1cnc2nc(N)nc(N)c2c1C | 0.85
26 | Cc1c(CNc2ccccc2OC(F)F)cnc2nc(N)nc(N)c12 | 0.87
27 | Cc1ccc(NCc2cnc3nc(N)nc(N)c3c2C)cc1Cl | 0.9
28 | Cc1ccc(F)c(NCc2cnc3nc(N)nc(N)c3c2C)c1 | 1.1
29 | COc1ccc(NCc2cnc3nc(N)nc(N)c3c2C)cc1F | 0.91
30 | CCOc1ccc(NCc2cnc3nc(N)nc(N)c3c2C)cc1OC | 1.1
31 | CCc1c(CNc2cc(C)ccc2OC)cnc2nc(N)nc(N)c12 | 3.1
32 | Cc1c(CNc2cc(C(F)(F)F)ccc2F)cnc2nc(N)nc(N)c12 | 0.86
33 | Cc1c(CNc2ccc3ccc4cccc5ccc2c3c45)cnc2nc(N)nc(N)c12 | 0.88
34 | Cc1c(CNc2cccc(Cl)c2)cnc2nc(N)nc(N)c12 | 0.82
35 | Cc1c(CNc2ccccc2Cl)cnc2nc(N)nc(N)c12 | 0.91
36 | Cc1c(CNc2ccc(Cl)c(Cl)c2)cnc2nc(N)nc(N)c12 | 0.92

biological target: T2, Dihydrofolate reductase (Homo sapiens, UniProt P00374); assay: Antimycobacterial activity against human dihydrofolate reductase (hDHFR)
T2 sequence (P00374 whole entry): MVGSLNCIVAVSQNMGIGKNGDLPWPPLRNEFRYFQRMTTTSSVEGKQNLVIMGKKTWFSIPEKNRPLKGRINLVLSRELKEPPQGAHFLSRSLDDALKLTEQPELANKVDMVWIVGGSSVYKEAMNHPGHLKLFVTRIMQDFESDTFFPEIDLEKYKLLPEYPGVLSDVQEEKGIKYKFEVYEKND

Row | SMILES | IC50 [nM]
37 | Cc1cc(Cl)ccc1NCc1cnc2nc(N)nc(N)c2c1C | 2.8
38 | Cc1c(CN(C)c2cccc3c2CCCC3)cnc2nc(N)nc(N)c12 | 710
39 | COc1ccc(SCc2cnc3nc(N)nc(N)c3c2C)cc1OC | 440
40 | Cc1cccc(SCc2cnc3nc(N)nc(N)c3c2C)c1 | 850
41 | COc1cc(NCc2cnc3nc(N)nc(N)c3c2)cc(OC)c1OC | 3900
42 | Cc1ccc(C)c(NCc2cnc3nc(N)nc(N)c3c2C)c1 | 57
43 | Cc1c(CNc2ccc(Cl)cc2)cnc2nc(N)nc(N)c12 | 27
44 | Nc1nc(N)c2cc(CNc3ccc(Cl)cc3)cnc2n1 | 670
45 | COc1cc(NCc2cnc3nc(N)nc(N)c3c2C)cc(OC)c1OC | 4.7
46 | Cc1c(CSc2cccc3ccccc23)cnc2nc(N)nc(N)c12 | 440
47 | COc1ccc(C)c(NCc2cnc3nc(N)nc(N)c3c2C)c1 | 150
48 | CCOc1ccc(OCC)c(N(C)Cc2cnc3nc(N)nc(N)c3c2C)c1 | 1000
49 | Cc1c(CNc2cccc3ccccc23)cnc2nc(N)nc(N)c12 | 4.3
50 | COc1cc(NCc2cnc3nc(N)nc(N)c3c2C)cc(C(F)(F)F)c1 | 5.5
51 | Cc1c(CSc2cccc(Cl)c2)cnc2nc(N)nc(N)c12 | 420
52 | COc1cccc(SCc2cnc3nc(N)nc(N)c3c2C)c1 | 500
53 | CCOc1ccc(OCC)c(NCc2cnc3nc(N)nc(N)c3c2C)c1 | 2300
54 | COc1ccc(C)cc1NCc1cnc2nc(N)nc(N)c2c1C | 300
55 | COc1ccc(C(F)(F)F)cc1NCc1cnc2nc(N)nc(N)c2c1C | 2.7

Row | SMILES | IC50 [nM]
56 | Cc1c(CNc2cccc3c2CCCC3)cnc2nc(N)nc(N)c12 | 142
57 | COc1ccc(NCc2cnc3nc(N)nc(N)c3c2C)cc1OC | 5.1
58 | COc1ccc(OC)c(CCc2cnc3nc(N)nc(N)c3c2C)c1 | 2700
59 | COc1cc(Cl)c(C)cc1NCc1cnc2nc(N)nc(N)c2c1C | 10
60 | Cc1c(CNc2ccc(OC(F)F)cc2)cnc2nc(N)nc(N)c12 | 20
61 | COCc1c(CNc2ccc(Cl)cc2)cnc2nc(N)nc(N)c12 | 2600
62 | Cc1c(CNc2cccc3cnccc23)cnc2nc(N)nc(N)c12 | 4
63 | Cc1ccc(F)cc1NCc1cnc2nc(N)nc(N)c2c1C | 19
64 | Cc1c(CNc2ccccc2OC(F)F)cnc2nc(N)nc(N)c12 | 277
65 | Cc1ccc(NCc2cnc3nc(N)nc(N)c3c2C)cc1Cl | 6.7
66 | Cc1ccc(F)c(NCc2cnc3nc(N)nc(N)c3c2C)c1 | 250
67 | COc1ccc(NCc2cnc3nc(N)nc(N)c3c2C)cc1F | 14
68 | CCOc1ccc(NCc2cnc3nc(N)nc(N)c3c2C)cc1OC | 18
69 | CCc1c(CNc2cc(C)ccc2OC)cnc2nc(N)nc(N)c12 | 370
70 | Cc1c(CNc2cc(C(F)(F)F)ccc2F)cnc2nc(N)nc(N)c12 | 4.1
71 | Cc1c(CNc2ccc3ccc4cccc5ccc2c3c45)cnc2nc(N)nc(N)c12 | 3.8
72 | Cc1c(CNc2cccc(Cl)c2)cnc2nc(N)nc(N)c12 | 17
73 | Cc1c(CNc2ccccc2Cl)cnc2nc(N)nc(N)c12 | 120
74 | Cc1c(CNc2ccc(Cl)c(Cl)c2)cnc2nc(N)nc(N)c12 | 5

biological target: T2, Dihydrofolate reductase

Row | SMILES | IC50 [nM]
75 | Cc1c(CNc2cccc3ccccc23)cnc2nc(N)nc(N)c12 | < 100

biological target: T2, Dihydrofolate reductase; assay: Antimycobacterial activity against Human dihydrofolatereductase (hDHFR)

Row | SMILES | IC50 [nM]
76 | COc1cc(NCc2cnc3nc(N)nc(N)c3c2C)cc(OC)c1 | 15
